Results reported in patent US20230365564A1, “COCRYSTALS OF AN ADENOSINE A2B RECEPTOR ANTAGONIST” (Teon Therapeutics, Inc., priority 2020, published 2023).

Key:
[1] = Pharmacokinetics following peroral administration to dogs; set-up: species or system beagle dogs; conditions: dog, in vivo
Method: The pharmacokinetics of the fumaric acid cocrystal of Example 4 was evaluated following peroral administration to dogs.
Male beagle dogs were separated into two groups of three dogs.
[…] The dosing formulation consisted of 0.40 mg/mL of the fumaric acid cocrystal in 4% Soluplus® in simulated gastric fluid (SGF) at pH 2.0, as a homogeneous opaque suspension of fine particles.
[…] The dosing formulation consisted of 2 mg/mL of the fumaric acid cocrystal in 4% Soluplus® in simulated gastric fluid (SGF) at pH 2.0, as a homogeneous opaque suspension of fine particles.

[2] = Aqueous solubility of compound (1); format: physicochemical; conditions: aqueous medium; substantially independent of pH over a relevant physiological range
[3] = Kinetic solubility (solubility-time profile) in biologically relevant fluids; format: physicochemical; conditions: for solubility: 0.5 h, 2 h and 24 h; for solubility-time profile: 0.5 h to 24 h; for solubility compared with the free form: several biologically relevant media
Method: The solubility-time profile of free form compound (1) and the three cocrystals was evaluated in different aqueous media.
(§1) The kinetic solubility experiments were conducted for the free form and the three cocrystals in the following media: (1) pH 1.0 (0.1N) HCl solution, (2) pH 4.5 (50 mM) acetate buffer, (3) pH 6.8 (50 mM) phosphate buffer, (4) FeSSIF-v1 (Fed state stimulated intestinal fluid version 1) (pH 5.0), (5) FaSSIF-v1 (Fasted state stimulated intestinal fluid version 1) (pH 6.5), (6) SGF (Simulated gastric fluid) (pH 2.0), and (7) FaSSIF-v1/4% Soluplus®, and (8) SGF/4% Soluplus®.
(§2) After combining with the respective media at 37° C., the concentration of the free form or cocrystal and the XRPD was measured at 0.5 hours, 2 hours, and 24 hours.

[4] = Bulk stability (HPLC and XRPD); format: physicochemical
Method: The bulk stability of the free form and the cocrystals was determined by exposing the compounds to conditions of temperature, humidity and/or radiation flux and evaluating the compound by HPLC and XRPD.

[5] = XRPD form change after standing in aqueous media at 37° C.; format: physicochemical; conditions: for form change (XRPD) after equilibrating in the aqueous media: 24 hours at 37° C.
Method: X-ray powder diffraction (XRPD) was performed using a Bruker D8 Advance® instrument with a Lynxeye® XE T(1D mode) detector at an open angle of 2.94° in continuous scan mode using a Cu/K-α (λ−1.5418 Å) source. The diffraction patterns were obtain over a scan range from 3° to 40° with 0.02° steps, a step duration of 0.12, and a sample rotation speed of 15 rpm.
as §1, §2
The XRPD patterns shown in FIGS. 19-23 are associated with the aqueous media described in Table 1 and for the free form (Compound (1), FF), the benzenesulfonic acid cocrystal (BSA CC), the para-toluenesulfonic acid cocrystal (pTSA CC), and the fumaric acid cocrystal (FA CC).

[6] = Dynamic vapor sorption (DVS) hygroscopicity; format: physicochemical; conditions: for water absorption (DVS): at 95% RH; for water absorption (DVS) / form change after DVS: 25° C.; for form change after DVS: humidity cycle 40-0-95-0-40% RH
Method: Dynamic vapor sorption (DVS) was performed using an Advantage instrument at a total gas flow rate of 200 sccm, an oven temperature of 25° C. with water as the solvent. The humidity cycle was 40-0-95-0-40% RH at step intervals of 10% RH with an equilibration of 0.002 dm/dt (%/min), a maximum, dm/dt stability duration of 60 min, and a maximum dm/dt stage time of 360 min.

[7] = oral, 5 mg/kg, 0.5% methylcellulose
[8] = 25° C./60% RH in an open vial, 2 weeks
[9] = 40° C./75% RH in an open vial, 2 weeks
[10] = 60° C. in a closed vial, 2 weeks
[11] = pH 1.0 HCl, pH 4.5 acetate, pH 6.8 phosphate, FeSSIF-v1, FaSSIF-v1
[12] = SGF, FaSSIF-v1/4% Soluplus and SGF/4% Soluplus
[13] = above 80% RH at 25° C. (then becomes)
[14] = po, 2 mg/kg peroral, fed male beagle dogs, 4% Soluplus in SGF pH 2.0
[15] = po, 10 mg/kg peroral, fed male beagle dogs, 4% Soluplus in SGF pH 2.0

Row | solubility-time profile ([3]; FaSSIF-v1/4% Soluplus, 37° C.) | solubility-time profile ([3]; SGF/4% Soluplus, 37° C.) | form change (XRPD) after equilibrating in the aqueous media [5, 11] | form change after solubility study [5, 12] | water adsorption ([6]; 25° C./80% RH) | water adsorption ([6]; 25° C./95% RH) | hygroscopicity (DVS) [6, 13] | water absorption (DVS) [6] | hygroscopicity (DVS) ([6]; below 80% RH at 25° C.) | form change after DVS [6] | solubility compared with the free form [3] | Compound | bulk stability ([4]; 1.2 million lux-hrs) | bulk stability [4, 8] | bulk stability [4, 9] | bulk stability [4, 10] | other results
1 | increased over time | increased over time | did not show a change in form | no form change | – | – | – | – | – | – | – | CCCn1c(=O)c2[nH]c(-c3cnn(Cc4cccc(C(F)(F)F)c4)c3)nc2n(CC)c1=O [Compound (1), 3-Ethyl-1-propyl-8-(1-(3-(trifluoromethyl)benzyl)-1H-pyrazol-4-yl)-3,7-dihydro-1H-purine-2,6-dione] | did not exhibit any significant degradation | did not exhibit any significant degradation | did not exhibit any significant degradation | did not exhibit any significant degradation | Cmax [1, 7]: 81 ng/mL; Tmax [1, 7]: 2 h; half-life [1, 7]: 63 h; AUC(0-t) ([1]; oral, 5 mg/kg, 0.5% methylcellulose, read-out: AUC0-24): 796 ng·h/mL; solubility [2]: < 1 µg/mL; solubility ([3]; FaSSIF-v1, 37° C.): below the level of quantification (LOQ); solubility ([3]; FeSSIF-v1, 37° C.): below the level of quantification (LOQ); solubility-time profile ([3]; SGF, 37° C.): maintained in the same magnitude; solubility ([3]; pH 1.0 HCl solution, 37° C.): below the level of quantification (LOQ); solubility ([3]; pH 4.5 acetate buffer, 37° C.): below the level of quantification (LOQ); solubility ([3]; pH 6.8 phosphate buffer, 37° C.): below the level of quantification (LOQ)
2 | increased over time | increased over time | completely dissociated to the free form | dissociated to free form | 2.2 wt % | 65 wt % | highly hygroscopic | 65% | only slightly hygroscopic | No form change | higher solubility than the free form | CCCn1c(=O)c2[nH]c(-c3cnn(Cc4cccc(C(F)(F)F)c4)c3)nc2n(CC)c1=O.O=S(=O)(O)c1ccccc1 [benzenesulfonic acid cocrystal, 3-ethyl-1-propyl-8-(1-(3-(trifluoromethyl)benzyl)-1H-pyrazol-4-yl)-3,7-dihydro-1H-purine-2,6-dione and benzenesulfonic acid] | stable | stable | began to show some disassociation | stable | –
3 | – | – | – | – | 1.7 wt % | 4.0 wt % | – | 4% | – | No form change | higher solubility than the free form | CCCn1c(=O)c2[nH]c(-c3cnn(Cc4cccc(C(F)(F)F)c4)c3)nc2n(CC)c1=O.O=C(O)/C=C/C(=O)O [fumaric acid cocrystal, 3-ethyl-1-propyl-8-(1-(3-(trifluoromethyl)benzyl)-1H-pyrazol-4-yl)-3,7-dihydro-1H-purine-2,6-dione and fumaric acid] | did not exhibit any significant degradation | did not exhibit any significant degradation | did not exhibit any significant degradation | did not exhibit any significant degradation | AUC(0-inf) [1, 14]: 2220 ng·h/mL; Cmax [1, 14]: 148 ng/mL; Tmax [1, 14]: 4 h; half-life [1, 14]: 14.8 h; AUC(0-inf) [1, 15]: 21100 ng·h/mL; Cmax [1, 15]: 976 ng/mL; Tmax [1, 15]: 10.7 h; half-life [1, 15]: 6.5 h; hygroscopicity (DVS) ([6]; above 90% RH at 25° C. (then becomes)): hygroscopic; hygroscopicity (DVS) ([6]; below 90% RH at 25° C.): slightly hygroscopic; form change (XRPD) after equilibrating in the aqueous media ([5]; FaSSIF-v1): only partially dissociated to the free form; form change (XRPD) after equilibrating in the aqueous media ([5]; FeSSIF-v1): only partially dissociated to the free form; form change (XRPD) after equilibrating in the aqueous media ([5]; pH 1.0 HCl solution): did not show any form change; form change (XRPD) after equilibrating in the aqueous media ([5]; pH 4.5 acetate buffer): only partially dissociated to the free form; form change after solubility study ([5]; FaSSIF-v1/4% Soluplus): converted to a mixture of the cocrystal and amorphous state (free form); form change after solubility study ([5]; SGF): dissociated to free form; form change after solubility study ([5]; SGF/4% Soluplus): converted to a mixture of the cocrystal and amorphous state (free form)
4 | first increased and then decreased | first increased and then decreased | completely dissociated to the free form | dissociated to free form | 1.1 wt % | 1.1 wt % | slightly hygroscopic | 11% | only slightly hygroscopic | No form change | higher solubility than the free form | CCCn1c(=O)c2[nH]c(-c3cnn(Cc4cccc(C(F)(F)F)c4)c3)nc2n(CC)c1=O.Cc1ccc(S(=O)(=O)O)cc1 [para-toluenesulfonic acid cocrystal, 3-ethyl-1-propyl-8-(1-(3-(trifluoromethyl)benzyl)-1H-pyrazol-4-yl)-3,7-dihydro-1H-purine-2,6-dione and para-toluenesulfonic acid] | did not exhibit any significant degradation | did not exhibit any significant degradation | did not exhibit any significant degradation | did not exhibit any significant degradation | –
